ChEMBL document CHEMBL2062394, “Azide-alkyne cycloaddition en route to novel 1H-1,2,3-triazole tethered isatin conjugates with in vitro cytotoxic evaluation” (Eur J Med Chem, 2012)

Assays:
A549 [1] = experiment: Growth inhibition of human A549 cells at 50 uM after 48 hrs by SRB assay; type: functional; conditions: A549, 48 h, read-out: GI
THP-1 [2] = experiment: Growth inhibition of human THP1 cells at 10 uM after 48 hrs by SRB assay; type: functional; conditions: THP-1, 48 h, read-out: GI
PC-3 [3] = experiment: Growth inhibition of human PC3 cells after 48 hrs by SRB assay; type: functional, cell-based; conditions: for IC50: PC-3, 48 h
Caco-2 [4] = experiment: Growth inhibition of human Caco2 cells at 10 uM after 48 hrs by SRB assay; type: functional; conditions: Caco-2, 48 h, read-out: GI
PC-3 [5] = experiment: Growth inhibition of human PC3 cells at 10 uM after 48 hrs by SRB assay; type: functional; conditions: PC-3, 48 h, read-out: GI
Caco-2 [6] = experiment: Growth inhibition of human Caco2 cells at 100 uM after 48 hrs by SRB assay; type: functional; conditions: Caco-2, 48 h, read-out: GI
THP-1 [7] = experiment: Growth inhibition of human THP1 cells after 48 hrs by SRB assay; type: functional, cell-based; conditions: for IC50: THP-1, 48 h
A549 [8] = experiment: Growth inhibition of human A549 cells after 48 hrs by SRB assay; type: functional, cell-based; conditions: for IC50: A549, 48 h
A549 [9] = experiment: Growth inhibition of human A549 cells at 100 uM after 48 hrs by SRB assay; type: functional; conditions: A549, 48 h, read-out: GI
Caco-2 [10] = experiment: Growth inhibition of human Caco2 cells at 50 uM after 48 hrs by SRB assay; type: functional; conditions: Caco-2, 48 h, read-out: GI
A549 [11] = experiment: Growth inhibition of human A549 cells at 10 uM after 48 hrs by SRB assay; type: functional; conditions: A549, 48 h, read-out: GI
THP-1 [12] = experiment: Growth inhibition of human THP1 cells at 50 uM after 48 hrs by SRB assay; type: functional; conditions: THP-1, 48 h, read-out: GI
THP-1 [13] = experiment: Ratio of 5-fluorouracil IC50 to compound IC50 for human THP1 cells; type: functional
THP-1 [14] = experiment: Growth inhibition of human THP1 cells at 100 uM after 48 hrs by SRB assay; type: functional; conditions: THP-1, 48 h, read-out: GI
PC-3 [15] = experiment: Growth inhibition of human PC3 cells at 100 uM after 48 hrs by SRB assay; type: functional; conditions: PC-3, 48 h, read-out: GI
PC-3 [16] = experiment: Growth inhibition of human PC3 cells at 50 uM after 48 hrs by SRB assay; type: functional; conditions: PC-3, 48 h, read-out: GI
Caco-2 [17] = experiment: Growth inhibition of human Caco2 cells after 48 hrs by SRB assay; type: functional, cell-based; conditions: for IC50: Caco-2, 48 h
PC-3 [18] = experiment: Growth inhibition of human PC3 cells at 1 uM after 48 hrs by SRB assay; type: functional; conditions: PC-3, 48 h, read-out: GI
Caco-2 [19] = experiment: Growth inhibition of human Caco2 cells at 20 uM after 48 hrs by SRB assay; type: functional; conditions: Caco-2, 48 h, read-out: GI
THP-1 [20] = experiment: Growth inhibition of human THP1 cells at 20 uM after 48 hrs by SRB assay; type: functional; conditions: THP-1, 48 h, read-out: GI
A549 [21] = experiment: Growth inhibition of human A549 cells at 1 uM after 48 hrs by SRB assay; type: functional; conditions: A549, 48 h, read-out: GI

## O=C1C(=O)N(CCn2cc(CN3C(=O)C(=O)c4ccccc43)nn2)c2ccccc21
A549 [1]
  inhibition of growth at 50 µM: 98%
THP-1 [2]
  inhibition of growth at 10 µM: 100%
PC-3 [3]
  growth inhibition (GI): Dose-dependent effect
  IC50: < 1 µM
Caco-2 [4]
  inhibition of growth at 10 µM: 9%
PC-3 [5]
  inhibition of growth at 10 µM: 99%
Caco-2 [6]
  inhibition of growth at 100 µM: 36%
THP-1 [7]
  growth inhibition (GI): Dose-dependent effect
  IC50: < 1 µM
A549 [8]
  growth inhibition (GI): Dose-dependent effect
  IC50: < 1 µM
A549 [9]
  inhibition of growth at 100 µM: 99%
Caco-2 [10]
  inhibition of growth at 50 µM: 20%
A549 [11]
  inhibition of growth at 10 µM: 96%
THP-1 [12]
  inhibition of growth at 50 µM: 100%
THP-1 [13]
  Ratio IC50: 2
THP-1 [14]
  inhibition of growth at 100 µM: 100%
PC-3 [15]
  inhibition of growth at 100 µM: 100%
PC-3 [16]
  inhibition of growth at 50 µM: 100%
Caco-2 [17]
  growth inhibition (GI): Dose-dependent effect
  IC50: > 100 µM

## CO[C@@]12[C@H](COC(N)=O)C3=C(C(=O)C(C)=C(N)C3=O)N1C[C@@H]1N[C@@H]12 [MITOMYCIN]
PC-3 [18]
  inhibition of growth at 1 µM: 60%

## Cc1ccc2c(c1)C(=O)C(=O)N2Cc1cn(CCN2C(=O)C(=O)c3ccccc32)nn1
A549 [1]
  inhibition of growth at 50 µM: 99%
THP-1 [2]
  inhibition of growth at 10 µM: 89%
PC-3 [3]
  growth inhibition (GI): Dose-dependent effect
  IC50: 3.03 µM
Caco-2 [4]
  inhibition of growth at 10 µM: 0%
PC-3 [5]
  inhibition of growth at 10 µM: 63%
Caco-2 [6]
  inhibition of growth at 100 µM: 17%
THP-1 [7]
  growth inhibition (GI): Dose-dependent effect
  IC50: < 1 µM
A549 [8]
  growth inhibition (GI): Dose-dependent effect
  IC50: 18.4 µM
A549 [9]
  inhibition of growth at 100 µM: 100%
Caco-2 [10]
  inhibition of growth at 50 µM: 0%
A549 [11]
  inhibition of growth at 10 µM: 35%
THP-1 [12]
  inhibition of growth at 50 µM: 100%
THP-1 [13]
  Ratio IC50: 2
THP-1 [14]
  inhibition of growth at 100 µM: 100%
PC-3 [15]
  inhibition of growth at 100 µM: 100%
PC-3 [16]
  inhibition of growth at 50 µM: 100%
Caco-2 [17]
  growth inhibition (GI): Dose-dependent effect
  IC50: > 100 µM

## O=c1[nH]cc(F)c(=O)[nH]1 [FLUOROURACIL]
Caco-2 [19]
  inhibition of growth at 20 µM: 68%
THP-1 [20]
  inhibition of growth at 20 µM: 70%

## Cc1ccc2c(c1)C(=O)C(=O)N2Cc1cn(CCN2C(=O)C(=O)c3cc(Cl)ccc32)nn1
A549 [1]
  inhibition of growth at 50 µM: 95%
THP-1 [2]
  inhibition of growth at 10 µM: 71%
PC-3 [3]
  growth inhibition (GI): Dose-dependent effect
  IC50: 32.6 µM
Caco-2 [4]
  inhibition of growth at 10 µM: 39%
PC-3 [5]
  inhibition of growth at 10 µM: 36%
Caco-2 [6]
  inhibition of growth at 100 µM: 56%
THP-1 [7]
  growth inhibition (GI): Dose-dependent effect
  IC50: < 1 µM
A549 [8]
  growth inhibition (GI): Dose-dependent effect
  IC50: < 1 µM
A549 [9]
  inhibition of growth at 100 µM: 98%
Caco-2 [10]
  inhibition of growth at 50 µM: 52%
A549 [11]
  inhibition of growth at 10 µM: 81%
THP-1 [12]
  inhibition of growth at 50 µM: 91%
THP-1 [13]
  Ratio IC50: 2
THP-1 [14]
  inhibition of growth at 100 µM: 92%
PC-3 [15]
  inhibition of growth at 100 µM: 70%
PC-3 [16]
  inhibition of growth at 50 µM: 55%
Caco-2 [17]
  growth inhibition (GI): Dose-dependent effect
  IC50: 44.9 µM

## O=C1C(=O)N(CCn2cc(CN3C(=O)C(=O)c4cc(Cl)ccc43)nn2)c2ccccc21
A549 [1]
  inhibition of growth at 50 µM: 98%
THP-1 [2]
  inhibition of growth at 10 µM: 80%
PC-3 [3]
  growth inhibition (GI): Dose-dependent effect
  IC50: < 1 µM
Caco-2 [4]
  inhibition of growth at 10 µM: 6%
PC-3 [5]
  inhibition of growth at 10 µM: 99%
Caco-2 [6]
  inhibition of growth at 100 µM: 38%
THP-1 [7]
  growth inhibition (GI): Dose-dependent effect
  IC50: < 1 µM
A549 [8]
  growth inhibition (GI): Dose-dependent effect
  IC50: < 1 µM
A549 [9]
  inhibition of growth at 100 µM: 100%
Caco-2 [10]
  inhibition of growth at 50 µM: 24%
A549 [11]
  inhibition of growth at 10 µM: 94%
THP-1 [12]
  inhibition of growth at 50 µM: 90%
THP-1 [13]
  Ratio IC50: 2
THP-1 [14]
  inhibition of growth at 100 µM: 100%
PC-3 [15]
  inhibition of growth at 100 µM: 100%
PC-3 [16]
  inhibition of growth at 50 µM: 100%
Caco-2 [17]
  growth inhibition (GI): Dose-dependent effect
  IC50: > 100 µM

## CC(=O)O[C@H]1C(=O)[C@@]2(C)[C@H]([C@H](OC(=O)c3ccccc3)[C@]3(O)C[C@H](OC(=O)[C@H](O)[C@@H](NC(=O)c4ccccc4)c4ccccc4)C(C)=C1C3(C)C)[C@]1(OC(C)=O)CO[C@@H]1C[C@@H]2O [PACLITAXEL]
A549 [21]
  inhibition of growth at 1 µM: 69%
